Assay results as given in PMC7754455 (Journal of Clinical Pharmacology, 2020).

How the values were obtained:
[1] = Blood and plasma binding and permeability PBPK input parameters; conditions: PBPK model parameter, fixed to observed value
[2] = Simcyp PBPK model parameter
[3] = Clinical DDI study part 1: plasma PK of molibresib alone and with itraconazole; conditions: with itraconazole vs alone, dose-normalized
[4] = Clinical DDI study part 2: plasma PK of molibresib alone and with rifampicin; conditions: for AUC0‐∞ / Cmax / t1/2 / tmax: part 2 n = 14; for AUC0‐∞ / Cmax / t1/2: geometric mean (CVb%); for tmax: median (range)
[5] = preclinical findings; cited from earlier work
[6] = human urine; ref study BET115521; cited from earlier work
[7] = Safety and tolerability in the DDI study; conditions: one subject, part 1, appeared on day 6
[8] = with rifampicin vs alone, part 2

For `COc1ccc2c(c1)C(c1ccc(Cl)cc1)=N[C@@H](CC(N)=O)c1nnc(C)n1-2` [GSK3529246], the “Blood:plasma ratio” value [1] was 0.9, the Fu plasma ([1]; fraction unbound) was 0.2 and the Compound type [2] was “Monoprotic base”. The “Log P” value [2] was 1.6, the pKb [2] was 7.36 and the “AUC Observed Geometric Mean Ratio (90%CI)” value ([3]; AUC 0 to infinity) was 0.29 (0.26‐0.32). For the same compound, the “Cmax Observed Geometric Mean Ratio (90%CI)” value [3] was 0.13 (0.11‐0.14), the “increase in Cmax with rifampicin” value ([4]; part 2) was 2 fold and the “AUC0‐∞” value ([4]; molibresib 10 mg alone) was 622 (26) ng·h/mL. The Cmax ([4]; molibresib 10 mg alone) was 49.0 (24) ng/mL, the t1/2 ([4]; molibresib 10 mg alone) was 10.0 (22) h and the tmax ([4]; molibresib 10 mg alone) was 2.0 (1.0‐4.1) h. The “AUC0‐∞” value ([4]; molibresib 20 mg + rifampicin) was 1140 (26) ng·h/mL, the Cmax ([4]; molibresib 20 mg + rifampicin) was 200 (24) ng/mL and the t1/2 ([4]; molibresib 20 mg + rifampicin) was 10.0 (24) h. For the same compound, the tmax ([4]; molibresib 20 mg + rifampicin) was 1.0 (0.53‐1.5) h, the “AUC0‐∞ Geometric Mean Ratio, Dosed Normalized (90%CI)” value [4, 8] was 0.917 (0.850‐0.989) and the “Cmax Geometric Mean Ratio, Dosed Normalized (90%CI)” value [4, 8] was 2.04 (1.78‐2.32).

In the case of `CCNC(=O)C[C@@H]1N=C(c2ccc(Cl)cc2)c2cc(OC)ccc2-n2c(C)nnc21` [Molibresib], the “preclinical adverse effects on male reproductive organs” value [5] is given as “adverse effects on the testes including sperm retention and disorganized spermatogenesis” and the “urinary excretion of unchanged drug” value [6] is given as “approximately 9.5 % of the total dose administered”.

For `CCC(C)n1ncn(-c2ccc(N3CCN(c4ccc(OCC5COC(Cn6cncn6)(c6ccc(Cl)cc6Cl)O5)cc4)CC3)cc2)c1=O` (stereo not drawn) [itraconazole], the “adverse event considered related by the investigator” value [7] was “mild elevations in liver enzymes”.
